Molecular target: T1, SgGAPDH (Streptococcus gordonii, UniProt Q68AZ3)
T1 construct: gene GAPDH
Assay: biochemical

T1 sequence (Q68AZ3 entry or part of it): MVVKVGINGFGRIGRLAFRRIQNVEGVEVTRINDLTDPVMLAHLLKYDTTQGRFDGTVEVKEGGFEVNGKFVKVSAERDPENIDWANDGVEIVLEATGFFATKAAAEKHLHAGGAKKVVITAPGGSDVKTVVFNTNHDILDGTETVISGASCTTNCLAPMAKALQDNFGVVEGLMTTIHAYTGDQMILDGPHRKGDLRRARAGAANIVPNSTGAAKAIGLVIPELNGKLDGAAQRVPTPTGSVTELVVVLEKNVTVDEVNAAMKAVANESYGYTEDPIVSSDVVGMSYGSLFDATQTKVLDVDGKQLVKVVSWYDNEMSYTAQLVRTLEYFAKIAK

Structure (SMILES): C=CC1=C(C)C2=Cc3c(C=C)c(C)c4[n]3[Fe]([Cl])[n]3c(c(C)c(CCC(=O)O)c3=CC3=NC(=C4)C(C)=C3CCC(=O)O)=CC1=N2 [Fe(III)heme]
- Kd: 1.7 µM
